Assay [1] has as its target T1, native Aβ aggregates in human AD brain tissue sections (Homo sapiens, UniProt P05067).
T1 construct: native Aβ aggregates in human AD brain tissue samples; from tissue; host or cells: human AD brain tissue sections
The experiment in a line: Aβ in vitro displacement assay (selectivity counterscreen, [3H]Example 3 autoradiography). It counts as binding. The conditions noted are these: 1 μM compound; 3 nM [3H]Example 3; human AD brain sections; read-out: sel. counterscreen PCT_INHIB AD @ 1 μM (% displacement of [3H]Example 3). (In general: Counterscreens check selectivity or assay interference.)

Assay [2] concerns the target T2, native aSyn aggregates in A30P transgenic mouse brain sections (Homo sapiens, UniProt P37840, A30P).
T2 construct: from tissue; host or cells: brain sections (midbrain and pons as ROI) of A30P transgenic mice, line B6.D2-Tg(Thy1-SNCA*30P)31Pjk
As to the kind of experiment: aSyn in vitro displacement assay ([3H]Example-3 autoradiography). In kind it is binding, mutant human aSyn gene). The conditions noted are these: 1 μM compound; 3 nM [3H]Example-3; A30P transgenic mouse brain sections; read-out: PCT_INHIB A30P @ 1 μM (% displacement of [3H]Example-3). For orientation: Loss of bound radioactivity is the signal in a displacement assay; it reports binding, not function.

T1 sequence (P05067 672-713 limits assumed): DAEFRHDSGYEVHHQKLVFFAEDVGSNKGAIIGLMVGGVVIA

For the molecule `COc1ccc(C(=O)Nc2ccc(N3CCN(c4ccc(C#N)cn4)CC3)cc2)cc1F` [Example 160, N-(4-(4-(5-Cyanopyridin-2-yl)piperazin-1-yl)phenyl)-3-fluoro-4-methoxybenzamide], the values for the inhibition at 1 µM in assay [1] and in assay [2] were 95% and 96%, respectively.

Take `COc1ccc(C(=O)Nc2ccc(N3CCN(c4ccccn4)CC3)cc2)c(F)c1` [Example 1, 2-Fluoro-4-methoxy-N-(4-(4-(pyridin-2-yl)piperazin-1-yl)phenyl)benzamide]: the inhibition at 1 µM in assay [1] stood at 95%; in assay [2] it was 100%.

With `COc1ccc(C(=O)Nc2ccc(N3CCN(c4ccc(C#N)cn4)CC3)cc2)nc1` [Example 162, N-(4-(4-(5-Cyanopyridin-2-yl)piperazin-1-yl)phenyl)-5-methoxypicolinamide], the inhibition at 1 µM in assay [1] was determined as 78%; in assay [2], 84%.

In the case of `COc1ccc(C(=O)Nc2ccc(N3CCN(c4ccccc4)CC3)cc2)cc1` [Example 101, 4-Methoxy-N-[4-(4-phenylpiperazin-1-yl)phenyl]benzamide], the inhibition at 1 µM in assay [1] came out at 99%; in assay [2], 95%.

Turning to `COc1ccc(C(=O)Nc2ccc(N3CCN(c4ccc(C#N)cc4)CC3)c(C)c2)cc1` [Example 112, N-[4-[4-(4-Cyanophenyl)piperazin-1-yl]-3-methyl-phenyl]-4-methoxy-benzamide], the inhibition at 1 µM in assay [1] stood at 74%; in assay [2], 87%.

In the case of `COc1ccc(C(=O)Nc2ccc(N3CCN(c4nccs4)CC3)cc2)c(F)c1` [Example 18, 2-Fluoro-4-methoxy-N-[4-[4-(1,3-thiazol-2-yl)piperazin-1-yl]phenyl]benzamide], the inhibition at 1 µM in assay [1] is 99%; in assay [2], 95%.

On to `O=C(Nc1ccc(N2CCN(c3ccccn3)CC2)cc1)c1ccc(OCF)cc1` [Example 135, 4-(fluoromethoxy)-N-[4-(4-pyridin-2-ylpiperazin-1-yl)phenyl]benzamide], for which the figures for the inhibition at 1 µM in assay [1] and in assay [2] were 98% and 97%, respectively.

With `O=C(Nc1ccc(N2CCN(c3nccs3)CC2)cc1)c1ccc(OCCOCCOCCF)cc1` [Example 120, 4-[2-[2-(2-Fluoroethoxy)ethoxy]ethoxy]-N-[4-(4-thiazol-2-ylpiperazin-1-yl)phenyl]benzamide], the inhibition at 1 µM in assay [1] worked out at 93%; in assay [2], 81%.

In the case of `CN(C)c1ccc(C(=O)Nc2cnc(N3CCN(c4ccccn4)CC3)nc2)cc1` [Example 62, 4-(Dimethylamino)-N-(2-(4-(pyridin-2-yl)piperazin-1-yl)pyrimidin-5-yl)benzamide], the inhibition at 1 µM stood at 97% in assay [1] and 89% in assay [2].

`COC(=O)c1ccc(N2CCN(c3ccc(NC(=O)c4ccc(OC)cc4)cc3)CC2)nc1` [Example 172, Methyl 6-(4-(4-(4-methoxybenzamido)phenyl)piperazin-1-yl)nicotinate]: the inhibition at 1 µM in assay [1] was determined as 84%; in assay [2], 93%.

Turning to `COc1ccc(C(=O)Nc2cnc(N3CCN(c4ccc(C#N)cn4)CC3)nc2)cc1` [Example 98, N-(2-(4-(5-Cyanopyridin-2-yl)piperazin-1-yl)pyrimidin-5-yl)-4-methoxybenzamide], the inhibition at 1 µM in assay [1] and in assay [2] was 86% each time.

In the case of `COc1cccc(C(=O)Nc2ccc(N3CCN(c4ccc(C#N)cc4)CC3)cc2)n1` [Example 93, N-(4-(4-(4-Cyanophenyl)piperazin-1-yl)phenyl)-6-methoxypicolinamide], the inhibition at 1 µM in assay [1] was determined as 89%; in assay [2], 99%.

`Cc1cccc(N2CCN(c3ccc(NC(=O)c4ccc(N(C)C)cc4)cc3)CC2)n1` [Example 30, 4-(Dimethylamino)-N-(4-(4-(6-methylpyridin-2-yl)piperazin-1-yl)phenyl)benzamide]: the inhibition at 1 µM was determined as 96% in assay [1] and 91% in assay [2].

With `N#Cc1ccc(N2CCN(c3ccc(NC(=O)c4ccc(OCCF)cc4)cc3)CC2)cc1` [Example 117, N-[4-[4-(4-Cyanophenyl)piperazin-1-yl]phenyl]-4-(2-fluoroethoxy)benzamide], the results for the inhibition at 1 µM in assay [1] and in assay [2] were 88% and 90%, respectively.

Turning to `O=C(Nc1ccc(N2CCN(c3ccccn3)CC2)cc1)c1ccc(OCCOCCO)cc1` [Example 137, 4-(2-(2-Hydroxyethoxy)ethoxy)-N-(4-(4-(pyridin-2-yl)piperazin-1-yl)phenyl)benzamide], the inhibition at 1 µM in assay [1] turned out to be 92%; in assay [2], 80%.

As for `Cc1ccc(C(=O)Nc2ccc(N3CCN(c4ccccn4)CC3)cc2)cc1` [Example 5, 4-Methyl-N-(4-(4-(pyridin-2-yl)piperazin-1-yl)phenyl)benzamide], the inhibition at 1 µM in assay [1] worked out at 102%; in assay [2], 99%.

Take `O=C(Nc1cnc(N2CCN(c3ccccn3)CC2)nc1)c1ccccc1F` [Example 61, 2-Fluoro-N-(2-(4-(pyridin-2-yl)piperazin-1-yl)pyrimidin-5-yl)benzamide]: the inhibition at 1 µM was 93% in assay [1] and 86% in assay [2].

Consider `COc1ccc(C(=O)Nc2ccc(N3CCN(c4ccc(C#N)nc4)CC3)cc2)cc1` [Example 154, N-(4-(4-(6-Cyanopyridin-3-yl)piperazin-1-yl)phenyl)-4-methoxybenzamide], for which the inhibition at 1 µM in assay [1] was found to be 96%; in assay [2], 98%.

Take `COc1ccc(C(=O)Nc2ccc(N3CCN(c4ccccn4)CC3)cc2)nc1` [Example 78, 5-Methoxy-N-(4-(4-(pyridin-2-yl)piperazin-1-yl)phenyl)picolinamide]: the inhibition at 1 µM in assay [1] was 94%; in assay [2], 98%.

As for `COc1ccc(C(=O)Nc2ccc(N3CCN(c4ccc(C#N)cn4)CC3)cn2)cc1` [Example 95, N-(5-(4-(5-Cyanopyridin-2-yl)piperazin-1-yl)pyridin-2-yl)-4-methoxybenzamide], the inhibition at 1 µM was 95% in assay [1] and 83% in assay [2].

Take `N#Cc1ccc(N2CCN(c3ccc(NC(=O)c4ccc(OCC(O)CF)cc4)cc3)CC2)nc1` (racemic) [Example 129, rac-N-(4-(4-(5-Cyanopyridin-2-yl)piperazin-1-yl)phenyl)-4-(3-fluoro-2-hydroxypropoxy)benzamide]: the inhibition at 1 µM in assay [1] came out at 94%; in assay [2], 86%.

For `O=C(Nc1ccc(N2CCN(c3ccccn3)CC2)cc1)c1ccc(O)cc1` [Example 2, 4-hydroxy-N-(4-(4-(pyridin-2-yl)piperazin-1-yl)phenyl)benzamide], the inhibition at 1 µM was 93% in assay [1] and 85% in assay [2].

With `COc1ccc(C(=O)Nc2ccc(N3CCN(c4ccc(C#N)cc4)CC3)cc2)cn1` [Example 157, N-(4-(4-(4-Cyanophenyl)piperazin-1-yl)phenyl)-6-methoxynicotinamide], the values for the inhibition at 1 µM in assay [1] and in assay [2] were 92% and 91%, respectively.

As for `COc1ccc(C(=O)Nc2ccc(N3CCN(c4ccc(C#N)cc4F)CC3)cc2)cc1` [Example 145, N-(4-(4-(4-Cyano-2-fluorophenyl)piperazin-1-yl)phenyl)-4-methoxybenzamide], the inhibition at 1 µM in assay [1] came out at 97%; in assay [2] it was 98%.

On to `O=C(Nc1ccc(N2CCN(c3cccnc3)CC2)cc1)c1ccc(OCF)cc1` [Example 134, 4-(fluoromethoxy)-N-(4-(4-(pyridin-3-yl)piperazin-1-yl)phenyl)benzamide], for which the results for the inhibition at 1 µM in assay [1] and in assay [2] were 93% and 94%, respectively.

Take `CN1CCOc2cc(C(=O)Nc3ccc(N4CCN(c5ccccn5)CC4)cc3)ccc21` [Example 42, 4-Methyl-N-(4-(4-(pyridin-2-yl)piperazin-1-yl)phenyl)-3,4-dihydro-2H-benzo[b][1,4]oxazine-7-carboxamide]: the figures for the inhibition at 1 µM in assay [1] and in assay [2] were 94% and 91%, respectively.

Take `COc1ccc(C(=O)Nc2ccc(N3CCN(c4nccs4)CC3)cc2)cc1` [Example 13, 4-Methoxy-N-[4-[4-(1,3-thiazol-2-yl)piperazin-1-yl]phenyl]benzamide]: the results for the inhibition at 1 µM in assay [1] and in assay [2] were 103% and 90%, respectively.

Take `COc1cccc(C(=O)Nc2ccc(N3CCN(c4ccc(C#N)cn4)CC3)cc2)n1` [Example 91, N-(4-(4-(5-Cyanopyridin-2-yl)piperazin-1-yl)phenyl)-6-methoxypicolinamide]: the results for the inhibition at 1 µM in assay [1] and in assay [2] were 54% and 85%, respectively.

For the molecule `N#Cc1ccc(N2CCN(c3ccc(NC(=O)c4ccc(O)cc4)cc3)CC2)nc1` [Example 108, N-(4-(4-(5-cyanopyridin-2-yl)piperazin-1-yl)phenyl)-4-hydroxybenzamide], the inhibition at 1 µM came to 92% in assay [1] and 81% in assay [2].

Turning to `COc1ccc(C(=O)Nc2cnc(N3CCN(c4ccccn4)CC3)nc2)c(F)c1` [Example 60, 2-Fluoro-4-methoxy-N-(2-(4-(pyridin-2-yl)piperazin-1-yl)pyrimidin-5-yl)benzamide], the inhibition at 1 µM in assay [1] turned out to be 96%; in assay [2], 85%.

Consider `COc1ccc(C(=O)Nc2ccc(N3CCN(c4ccc(C)nc4)CC3)cc2)cc1` [Example 156, 4-Methoxy-N-(4-(4-(6-methylpyridin-3-yl)piperazin-1-yl)phenyl)benzamide], for which the inhibition at 1 µM in assay [1] is 76%; in assay [2] it was 81%.

With `COc1ccc(C(=O)Nc2ccc(N3CCN(c4ccc(C#N)c(C)c4)CC3)cc2)cc1` [Example 153, N-(4-(4-(4-Cyano-3-methylphenyl)piperazin-1-yl)phenyl)-4-methoxybenzamide], the inhibition at 1 µM in assay [1] stood at 87%; in assay [2], 92%.

These data come from patent US11541132B2, “Radiolabeled compounds” (Hoffmann-La Roche Inc., priority 2017, dated 2023).
